Assay results as given in ChEMBL document CHEMBL1687767, “New antiseptic peptides to protect against endotoxin-mediated shock” (Antimicrob Agents Chemother, 2010).
Values after ≈ are worked out from the molar mass of the structure shown. Active and inactive are the calls of the source. The calls are words filed in the database; no cut-off is given here. Residues, ends and D or L forms follow the SMILES beside them.

What was measured:
[1] = Toxicity in human RBC assessed as hemolysis upto 25 ug/ml; assay type: cell-based; details: erythrocyte
Escherichia coli = experiment: Antimicrobial activity against Escherichia coli ATCC 25922 by broth microdilution method; assay type: functional
[2] = test system: Bordetella bronchiseptica; experiment: Antimicrobial activity against Bordetella bronchiseptica CUN11844-99 by broth microdilution method; assay type: functional
Staphylococcus aureus [3] = experiment: Antimicrobial activity against methicillin-resistant Staphylococcus aureus CUN 3792-99 by broth microdilution method; assay type: functional
Pseudomonas aeruginosa [4] = experiment: Antimicrobial activity against Pseudomonas aeruginosa ATCC 27853 by broth microdilution method; assay type: functional
Homo sapiens = organism: Homo sapiens; experiment: Antiinflammatory activity in human MNC assessed as inhibition of LPS-induced TNFalpha production at compound: LPS ratio of 100:1 weight percent by ELISA; assay type: functional
Staphylococcus aureus [5] = experiment: Antimicrobial activity against Staphylococcus aureus ATCC 25923 by broth microdilution method; assay type: functional
[6] = test system: Stenotrophomonas maltophilia; experiment: Antimicrobial activity against […] Stenotrophomonas maltophilia CUN 3998-00 by broth microdilution method; assay type: functional
Pseudomonas aeruginosa [7] = experiment: Antimicrobial activity against Pseudomonas aeruginosa CUN 4158-02 by broth microdilution method; assay type: functional
Staphylococcus aureus [8] = experiment: Antimicrobial activity against methicillin-resistant Staphylococcus aureus ATCC 43300 by broth microdilution method; assay type: functional
Acinetobacter baumannii = experiment: Antimicrobial activity against […] Acinetobacter baumannii ATCC 19606 by broth microdilution method; assay type: functional

Row | SMILES | Activity [1] | MIC (Escherichia coli) | MIC [2] | MIC (Staphylococcus aureus [3]) | MIC (Pseudomonas aeruginosa [4]) | inhibition (Homo sapiens) | MIC (Staphylococcus aureus [5]) | MIC [6] | MIC (Pseudomonas aeruginosa [7]) | MIC (Staphylococcus aureus [8]) | MIC (Acinetobacter baumannii)
1 | N=C(N)NCCC[C@H](NC(=O)[C@H](Cc1ccccc1)NC(=O)[C@H](CCCCN)NC(=O)[C@H](Cc1c[nH]c2ccccc12)NC(=O)[C@H](CS)NC(=O)[C@H](Cc1ccccc1)NC(=O)[C@H](CCCNC(=N)N)NC(=O)[C@H](Cc1ccc(O)cc1)NC(=O)[C@H](CCCCN)NC(=O)CNC(=O)[C@H](Cc1ccccc1)NC(=O)[C@H](CCCNC(=N)N)NC(=O)[C@H](Cc1c[nH]c2ccccc12)NC(=O)[C@H](CCCCN)NC(=O)CNC(=O)[C@H](Cc1ccccc1)NC(=O)[C@@H](N)CCCCN)C(=O)NCC(=O)N[C@@H](Cc1c[nH]c2ccccc12)C(=O)N[C@@H](CCCCN)C(=O)O (H-KFGKWRFGKYRFCWKFRGWK-OH) | Non-toxic |  |  |  |  |  |  |  |  |  | 
2 | N=C(N)NCCC[C@H](NC(=O)[C@H](Cc1ccc(O)cc1)NC(=O)[C@H](CCCCN)NC(=O)[C@H](CCCCN)NC(=O)[C@H](CS)NC(=O)CN)C(=O)N[C@@H](CCCNC(=N)N)C(=O)N[C@@H](Cc1ccccc1)C(=O)N[C@@H](CCCNC(=N)N)C(=O)N[C@@H](Cc1c[nH]c2ccccc12)C(=O)N[C@@H](CCCCN)C(=O)N[C@@H](Cc1ccccc1)C(=O)N[C@@H](CCCCN)C(=O)NCC(=O)N[C@@H](CCCCN)C(=O)N[C@@H](Cc1ccccc1)C(=O)N[C@@H](Cc1c[nH]c2ccccc12)C(=O)N[C@@H](Cc1ccccc1)C(=O)N[C@@H](Cc1c[nH]c2ccccc12)C(=O)O (H-GCKKYRRFRWKFKGKFWFW-OH) | Non-toxic | 64 µg/mL (≈ 24.1 µM) | 64 µg/mL (≈ 24.1 µM) | 64 µg/mL (≈ 24.1 µM) | 64 µg/mL (≈ 24.1 µM) | Active | 64 µg/mL (≈ 24.1 µM) | 128 µg/mL (≈ 48.2 µM) | 128 µg/mL (≈ 48.2 µM) | 32 µg/mL (≈ 12.1 µM) | 64 µg/mL (≈ 24.1 µM)
3 | CC[C@H](C)[C@H](NC(=O)CN)C(=O)NCC(=O)N[C@@H](C)C(=O)N[C@H](C(=O)N[C@@H](CC(C)C)C(=O)N[C@@H](CCCCN)C(=O)N[C@H](C(=O)N[C@@H](CC(C)C)C(=O)N[C@H](C(=O)N[C@H](C(=O)NCC(=O)N[C@@H](CC(C)C)C(=O)N1CCC[C@H]1C(=O)N[C@@H](C)C(=O)N[C@@H](CC(C)C)C(=O)N[C@H](C(=O)N[C@@H](CO)C(=O)N[C@@H](Cc1c[nH]c2ccccc12)C(=O)N[C@H](C(=O)N[C@@H](CCCCN)C(=O)N[C@@H](CCCNC(=N)N)C(=O)N[C@@H](CCCCN)C(=O)N[C@@H](CCCNC(=N)N)C(=O)N[C@@H](CCC(N)=O)C(=O)N[C@@H](CCC(N)=O)C(N)=O)[C@@H](C)CC)[C@@H](C)CC)[C@@H](C)O)[C@@H](C)O)C(C)C)C(C)C [MELITTIN] | Non-toxic |  |  |  |  |  |  |  |  |  | 
4 | N=C(N)NCCC[C@H](NC(=O)[C@H](Cc1ccc(O)cc1)NC(=O)[C@H](CCCCN)NC(=O)[C@H](CCCCN)NC(=O)CN)C(=O)N[C@@H](CCCNC(=N)N)C(=O)N[C@@H](Cc1ccccc1)C(=O)N[C@@H](CCCNC(=N)N)C(=O)N[C@@H](Cc1c[nH]c2ccccc12)C(=O)N[C@@H](CCCCN)C(=O)N[C@@H](Cc1ccccc1)C(=O)N[C@@H](CCCCN)C(=O)NCC(=O)N[C@@H](CCCCN)C(=O)N[C@@H](Cc1c[nH]c2ccccc12)C(=O)N[C@@H](Cc1ccccc1)C(=O)N[C@@H](Cc1c[nH]c2ccccc12)C(=O)N[C@@H](Cc1ccccc1)C(=O)NCC(=O)O (H-GKKYRRFRWKFKGKWFWFG-OH) |  | 16 µg/mL (≈ 6.13 µM) | 4 µg/mL (≈ 1.53 µM) | 16 µg/mL (≈ 6.13 µM) | 16 µg/mL (≈ 6.13 µM) |  | 16 µg/mL (≈ 6.13 µM) | 32 µg/mL (≈ 12.3 µM) | 16 µg/mL (≈ 6.13 µM) | 16 µg/mL (≈ 6.13 µM) | 16 µg/mL (≈ 6.13 µM)
5 | N=C(N)NCCC[C@H](NC(=O)[C@H](Cc1ccc(O)cc1)NC(=O)[C@H](CCCNC(=N)N)NC(=O)[C@H](Cc1c[nH]c2ccccc12)NC(=O)[C@H](CCCNC(=N)N)NC(=O)[C@H](Cc1ccccc1)NC(=O)[C@H](CCCCN)NC(=O)[C@H](CCCCN)NC(=O)[C@H](Cc1c[nH]c2ccccc12)NC(=O)[C@H](CCCNC(=N)N)NC(=O)[C@H](CCCNC(=N)N)NC(=O)[C@H](CS)NC(=O)CN)C(=O)NCC(=O)N[C@@H](CCCCN)C(=O)N[C@@H](Cc1ccccc1)C(=O)N[C@@H](Cc1c[nH]c2ccccc12)C(=O)N[C@@H](Cc1ccccc1)C(=O)N[C@@H](Cc1c[nH]c2ccccc12)C(=O)N[C@@H](CS)C(=O)NCC(=O)O (H-GCRRWKKFRWRYRGKFWFWCG-OH) |  | 128 µg/mL (≈ 44 µM) | 32 µg/mL (≈ 11 µM) | 64 µg/mL (≈ 22 µM) | 128 µg/mL (≈ 44 µM) |  | 64 µg/mL (≈ 22 µM) | 64 µg/mL (≈ 22 µM) | 128 µg/mL (≈ 44 µM) | 32 µg/mL (≈ 11 µM) | 64 µg/mL (≈ 22 µM)
6 | N=C(N)NCCC[C@H](NC(=O)[C@H](Cc1ccc(O)cc1)NC(=O)[C@H](CCCCN)NC(=O)[C@H](CCCCN)NC(=O)CN)C(=O)N[C@@H](CCCNC(=N)N)C(=O)N[C@@H](Cc1ccccc1)C(=O)N[C@@H](Cc1c[nH]c2ccccc12)C(=O)N[C@@H](CCCCN)C(=O)N[C@@H](Cc1ccccc1)C(=O)N[C@@H](CCCCN)C(=O)NCC(=O)N[C@@H](CCCCN)C(=O)N[C@@H](Cc1c[nH]c2ccccc12)C(=O)N[C@@H](Cc1ccccc1)C(=O)N[C@@H](Cc1c[nH]c2ccccc12)C(=O)N[C@@H](Cc1ccccc1)C(=O)N[C@@H](Cc1c[nH]c2ccccc12)C(=O)NCC(=O)O (H-GKKYRRFWKFKGKWFWFWG-OH) |  | 1020 µg/mL (≈ 388 µM) | 8 µg/mL (≈ 3.03 µM) | 16 µg/mL (≈ 6.06 µM) | 8 µg/mL (≈ 3.03 µM) |  | 1020 µg/mL (≈ 388 µM) | 64 µg/mL (≈ 24.3 µM) | 32 µg/mL (≈ 12.1 µM) | 16 µg/mL (≈ 6.06 µM) | 16 µg/mL (≈ 6.06 µM)
